Measurements as given in publication PMC6895048, “4,5-Disubstituted 1,2,3-triazoles: Effective Inhibition of Indoleamine 2,3-Dioxygenase 1 Enzyme Regulates T cell Activity and Mitigates Tumor Growth” (Scientific Reports, 2019).

How the values were obtained:
[1] = target: T1, purified human IDO1 enzyme (Homo sapiens, UniProt P14902); experiment: IDO1 inhibition assay by the spectrometric method (pDMAB); type: biochemical; conditions: purified human IDO1; spectrophotometric; mean of three independent assays; read-out: hIDO1 IC50
T1 construct: made in house; host or cells: Escherichia coli M15 (pQE30 vector with pREP4 plasmid)
T1 sequence (P14902 whole entry): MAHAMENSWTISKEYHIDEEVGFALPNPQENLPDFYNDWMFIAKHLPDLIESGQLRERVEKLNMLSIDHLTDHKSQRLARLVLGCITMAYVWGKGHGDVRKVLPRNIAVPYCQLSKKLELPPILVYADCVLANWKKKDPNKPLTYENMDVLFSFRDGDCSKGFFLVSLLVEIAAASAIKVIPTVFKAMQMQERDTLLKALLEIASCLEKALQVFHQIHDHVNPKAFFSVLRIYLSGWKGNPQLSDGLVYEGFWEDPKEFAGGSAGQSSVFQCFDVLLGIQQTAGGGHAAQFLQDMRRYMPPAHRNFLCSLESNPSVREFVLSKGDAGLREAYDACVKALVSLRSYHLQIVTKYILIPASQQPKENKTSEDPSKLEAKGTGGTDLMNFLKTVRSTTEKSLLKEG
Protocol: Both IDO1 and TDO inhibition assays were performed according to the reported procedures[26]–[30],[50],[51]. […] In the assay system, the minimum and maximum amount of DMSO was 0.02% and 2%, respectively. […] The concentration of the inhibitors was varied from 100 µM to 32 nM by serial dilution technique. Then, the reaction was quenched with 100 µL of 30% (w/v) trichloroacetic acid and was incubated for further 15 minutes at 65 °C. After that, 2% (w/v) pDMAB was used to quantify the amount of kynurenine formation. The absorbance of the reaction mixture was recorded by UV-Vis spectrophotometer at 480 nm.

[2] = target: T2, purified human TDO enzyme (Homo sapiens, UniProt P48775); experiment: TDO inhibition assay by the spectrometric method; type: biochemical; conditions: spectrophotometric
T2 construct: 6xHis (N); made in house; host or cells: Escherichia coli BL21 (DE3) (pET 28a vector)
T2 sequence (P48775 whole entry): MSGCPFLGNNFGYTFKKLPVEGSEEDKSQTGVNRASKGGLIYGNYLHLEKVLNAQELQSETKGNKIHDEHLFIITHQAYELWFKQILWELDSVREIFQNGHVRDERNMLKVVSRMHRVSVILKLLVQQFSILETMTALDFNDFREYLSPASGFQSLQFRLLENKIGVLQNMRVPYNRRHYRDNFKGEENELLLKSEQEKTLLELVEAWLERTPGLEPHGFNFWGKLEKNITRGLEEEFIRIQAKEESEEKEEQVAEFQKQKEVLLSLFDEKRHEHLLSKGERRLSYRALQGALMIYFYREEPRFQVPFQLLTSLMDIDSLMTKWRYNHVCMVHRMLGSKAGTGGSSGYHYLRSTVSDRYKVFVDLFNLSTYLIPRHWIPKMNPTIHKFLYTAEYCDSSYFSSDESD
Protocol: Both IDO1 and TDO inhibition assays were performed according to the reported procedures[26]–[30],[50],[51]. The solubility of the compounds in water was either moderate or poor. […] In the assay system, the minimum and maximum amount of DMSO was 0.02% and 2%, respectively. The standard reaction mixture (500 μL) containing KPB (100 mM, pH 6.5 for IDO1 enzyme and 50 mM, pH 8.0 for TDO enzyme), sodium ascorbate (20 mM), methylene blue (10 µM), catalase (240 nM, from bovine liver), L-Trp (150 µM), purified enzyme (40 nM for IDO1 and 25 nM for TDO), DMSO (0.05%, v/v), Triton-X 100 (0.01%, v/v) and inhibitors was incubated at 37 °C for 1 hour. The concentration of the inhibitors was varied from 100 µM to 32 nM by serial dilution technique. Then, the reaction was quenched with 100 µL of 30% (w/v) trichloroacetic acid and was incubated for further 15 minutes at 65 °C. After that, 2% (w/v) pDMAB was used to quantify the amount of kynurenine formation. The absorbance of the reaction mixture was recorded by UV-Vis spectrophotometer at 480 nm. The Km = 59.76 µM and Kcat = 6.18 sec^−1.

| Structure (SMILES) | IC50 [1] | also measured |
| --- | --- | --- |
| Cc1ccc(-c2n[nH]nc2C(N)=O)cc1 [Compound 3b] | 7.08 ± 0.691 µM | – |
| NC(=O)c1n[nH]nc1-c1cccc(Cl)c1 [Compound 3d] | 2.69 ± 0.055 µM | – |
| CC(C)(C)OC(=O)NCCNC(=O)c1n[nH]nc1-c1ccc(F)c(F)c1 [Compound 4f] | 2.74 ± 0.195 µM | – |
| NC(=O)c1n[nH]nc1-c1ccc(F)cc1 [Compound 3f] | 2.94 ± 0.034 µM | – |
| CCOC(=O)c1n[nH]nc1-c1cccc(Br)c1 [Compound 2e] | 2.981 ± 0.012 µM | – |
| NC(=O)c1n[nH]nc1-c1ccc(F)c(Br)c1 [3 l] | 1.993 ± 0.005 µM | – |
| CCOC(=O)c1n[nH]nc1-c1ccc(F)cc1 [Compound 2f] | 8.09 ± 0.21 µM | – |
| Brc1ccc(-c2n[nH]nc2-c2ccc(Br)cc2)cc1 [Compound 1h] | 40.7 ± 2.7 µM | – |
| CC(=O)Nc1ccc(/C(=N/O)NC(=O)c2n[nH]nc2-c2ccc(F)c(F)c2)cc1 [Compound 4j] | 2.36 ± 0.308 µM | – |
| NC(=O)c1n[nH]nc1-c1ccc(F)c(Cl)c1 [Compound 3k] | 1.83 ± 0.126 µM | – |
| Clc1cccc(-c2n[nH]nc2-c2cccc(Cl)c2)c1 [Compound 1d] | 2.51 ± 0.06 µM | – |
| Fc1cccc(-c2n[nH]nc2-c2cccc(F)c2)c1 [Compound 1c] | 4.99 ± 0.057 µM | – |
| CCOC(=O)c1n[nH]nc1-c1ccc(F)c(Cl)c1 [Compound 2k] | 1.69 ± 0.102 µM | – |
| NC(=O)c1n[nH]nc1-c1cccc(Br)c1 [Compound 3e] | 26.7 ± 2.2 µM | – |
| NC(=O)c1n[nH]nc1-c1cccc(F)c1 [Compound 3c] | 6.61 ± 0.355 µM | – |
| Fc1ccc(-c2n[nH]nc2-c2ccc(F)c(F)c2)cc1F [Compound 1i] | 7.72 ± 0.761 µM | – |
| NC(=O)c1n[nH]nc1-c1ccc(Cl)cc1 [Compound 3g] | 0.624 ± 0.023 µM | % of Enzyme inhibition (TDO) ([2]; 32 nM): 5%; % of Enzyme inhibition (TDO) ([2]; 160 nM): 8%; % of Enzyme inhibition (TDO) ([2]; 800 nM): 15%; % of Enzyme inhibition (TDO) ([2]; 4 µM): 27%; % of Enzyme inhibition (TDO) ([2]; 20 µM): 35%; % of Enzyme inhibition (TDO) ([2]; 100 µM): 39% |
| CCOC(=O)c1n[nH]nc1-c1cccc(Cl)c1 [Compound 2d] | 2.55 ± 0.033 µM | – |
| Clc1ccc(-c2n[nH]nc2-c2ccc(Cl)cc2)cc1 [Compound 1g] | 3.21 ± 0.1 µM | – |
